Laboratory results: patent US6664411B2, “Heterocyclic compounds and their use in medicine; process for their preparation and pharmaceutical compositions containing them” (Dr. Reddy's Laboratories Limited, priority 1997, dated 2003)

Experiments:
hPPARα = biological target: T1, hPPARα (Homo sapiens, UniProt Q07869); assay: Determination of hPPARα activity (GAL4 fusion luciferase reporter, HEK-293 cells); format: cell-based; conditions: Concentration 50 μM
T1 construct: expressed in transfected cells; host or cells: HEK-293
T1 sequence (Q07869 239-466 limits assumed): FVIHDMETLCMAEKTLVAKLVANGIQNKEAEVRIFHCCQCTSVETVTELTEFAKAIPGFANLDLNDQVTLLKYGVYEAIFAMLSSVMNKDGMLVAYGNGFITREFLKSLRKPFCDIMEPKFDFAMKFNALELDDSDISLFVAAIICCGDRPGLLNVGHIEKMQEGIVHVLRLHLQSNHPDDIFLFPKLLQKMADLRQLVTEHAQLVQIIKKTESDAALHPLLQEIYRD
Protocol: Ligand binding domain of hPPARα was fused to DNA binding domain of Yeast transcription factor GAL4 in eucaryotic expression vector. Using superfect (Qiagen, Germany) as transfecting reagent HEK-293 cells were transfected with this plasmid and a reporter plasmid harboring the luciferase gene driven by a GALA specific promoter. Compound was added at different concentrations after 42 hrs of transfection and incubated overnight. Luciferase activity as a function of compound binding/activation capacity of PPARα was measured using Packard Luclite kit (Packard, USA) in Top Count (Ivan Sadowski, Brendan Bell, Peter Broag and Melvyn Hollis. Gene. 1992. 118: 137-141; Superfect Transfection Reagent Handbook. February, 1997. Qiagen, Germany).

hPPARγ1 = biological target: T2, hPPARγ1 (Homo sapiens, UniProt P37231); assay: Determination of hPPARγ activity (GAL4 fusion luciferase reporter, HEK-293 cells); format: cell-based; conditions: Concentration 1 μM
T2 construct: expressed in transfected cells; host or cells: HEK-293
T2 sequence (P37231 238-503 limits assumed): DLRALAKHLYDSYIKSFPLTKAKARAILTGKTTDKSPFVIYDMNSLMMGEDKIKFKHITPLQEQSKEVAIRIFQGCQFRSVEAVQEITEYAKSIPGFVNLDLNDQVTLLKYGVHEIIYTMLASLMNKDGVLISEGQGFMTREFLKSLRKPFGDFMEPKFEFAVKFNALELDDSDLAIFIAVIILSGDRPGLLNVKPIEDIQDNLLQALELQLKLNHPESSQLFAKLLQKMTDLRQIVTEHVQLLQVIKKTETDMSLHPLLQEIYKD
Protocol: Ligand binding domain of hPPARγ1 was fused to DNA binding domain of Yeast transcription factor GAL4 in eucaryotic expression vector. Using lipofectamine (Gibco BRL, USA) as transfecting reagent HEK-293 cells were transfected with this plasmid and a reporter plasmid harboring the luciferase gene driven by a GAL4 specific promoter. Compound was added at 1 μM concentration after 48 hrs of transfection and incubated overnight. Luciferase activity as a function of drug binding/activation capacity of PPARγ was measured using Packard Luclite kit (Packard, USA) in Packard Top Count (Ivan Sadowski, Brendan Bell, Peter Broag and Melvyn Hollis. Gene. 1992. 118:137-141; Guide to Eukaryotic Transfections with Cationic Lipid Reagents. Life Technologies, GIBCO BRL, USA).

[1] = tested on: hypercholesterolemic Sprague Dawley rats; assay: Cholesterol lowering activity in hypercholesterolemic rat models; format: in vivo; conditions: for LDL↓ (%): LDL calculated; for VLDL↓ (%): VLDL calculated
Protocol: Male Sprague Dawley rats (NIN stock) were bred in DRF animal house. Animals were maintained under 12 hour light and dark cycle at 25±1° C. Rats of 180-200 gram body weight range were used for the experiment. Animals were made hypercholesterolemic by feeding 2% cholesterol and 1% sodium cholate mixed with standard laboratory chow [National Institute of Nutrition (NIN), Hyderabad, India] for 6 days. Throughout the experimental period the animals were maintained on the same diet (Petit, D., Bonnefis, M. T., Rey, C and Infante, R. Effects of ciprofibrate on liver lipids and lipoprotein synthesis in normo- and hyperlipidemic rats. Atherosclerosis. 1988. 74: 215-225).
The test compounds were administered orally at a dose 0.1 to 30 mg/kg/day for 3 days. Control group was treated with vehicle alone (0.25% Carboxymethylcellulose; dose 10 ml/kg).
The blood samples were collected in fed state 1 hour after drug administration on 0 and 3 day of compound treatment. The blood was collected from the retro-orbital sinus through heparinised capillary in EDTA containing tubes. After centrifugation, plasma sample was separated for total cholesterol, HDL and triglyceride estimations. Measurement of plasma triglyceride, total cholesterol and HDL were done using commercial kits (Dr. Reddy's Laboratory, Diagnostic Division, India). LDL and VLDL cholesterol were calculated from the data obtained for total cholesterol, HDL and triglyceride. The reduction of various parameters examined are calculated according to the formula.
(§1) 1. Percent reduction in Blood sugar/triglycerides/total cholesterol were calculated according to the formula: [formula]
2. LDL and VLDL cholesterol levels were calculated according to the formula: [formula]
VLDL cholesterol in mg/dl=[Total cholesterol−HDL cholesterol−LDL cholesterol] mg/dl

C57BL/KsJ-db/db mice = assay: Efficacy in genetic models: blood sugar and triglyceride lowering in db/db mice; format: in vivo; conditions: 3 mg/kg oral gavage daily for 6 days
From the text: Mutation in colonies of laboratory animals and different sensitivities to dietary regimens have made the development of animal models with non-insulin dependent diabetes and hyperlipidemia associated with obesity and insulin resistance possible. Genetic models such as db/db and ob/ob (Diabetes, (1982) 31(1):1-6) mice and zucker fa/fa rats have been developed by the various laboratories for understanding the pathophysiology of disease and testing the efficacy of new antidiabetic compounds (Diabetes, (1983) 32:830-838; Annu. Rep. Sankyo Res. Lab. (1994). 46:1-57). The homozygous animals, C57 BL/KsJ-db/db mice developed by Jackson Laboratory, US, are obese, hyperglycemic, hyperinsulinemic and insulin resistant (J. Clin. Invest., (1990) 85:962-967), whereas heterozygous are lean and normoglycemic. In db/db model, mouse progressively develops insulinopenia with age, a feature commonly observed in late stages of human type II diabetes when blood sugar levels are insufficiently controlled. The state of pancreas and its course vary according to the models. Since this model resembles that of type II diabetes mellitus, the compounds of the present invention were tested for blood sugar and triglycerides lowering activities.
Male C57BL/KsJ-db/db mice of 8 to 14 weeks age, having body weight range of 35 to 60 grams, bred at Dr. Reddy's Research Foundation (DRF) animal house, were used in the experiment. The mice were provided with standard feed (National Institute of Nutrition (NIN), Hyderabad, India) and acidified water, ad libitum. The animals having more than 350 mg/dl blood sugar were used for testing. The number of animals in each group was 4.
Test compounds were suspended on 0.25% carboxymethyl cellulose and administered to test group at a dose of 0.001 mg to 30 mg/kg through oral gavage daily for 6 days. The control group received vehicle (dose 10 ml/kg). On 6th day the blood samples were collected one hour after administration of test compounds/vehicle for assessing the biological activity.
The random blood sugar and triglyceride levels were measured by collecting blood (100 μl) through orbital sinus, using heparinised capillary in tubes containing EDTA which was centrifuged to obtain plasma. The plasma glucose and triglyceride levels were measured spectrometrically, by glucose oxidase and glycerol-3-PO4 oxidase/peroxidase enzyme (Dr. Reddy's Lab. Diagnostic Division Kits, Hyderabad, India) methods respectively.
The blood sugar and triglycerides lowering activities of the test compound was calculated according to the formula described below.
as §1

[2] = tested on: Swiss albino mice and Guinea pigs; assay: Plasma triglyceride and total cholesterol lowering activity in Swiss albino mice and Guinea pigs; format: in vivo; conditions: 3 mg/kg orally for 6 days; species of the table not stated (Swiss albino mice or Guinea pigs)
Protocol: Male Swiss albino mice (SAM) and male Guinea pigs were obtained from NIN and housed in DRF animal house. All these animals were maintained under 12 hour light and dark cycle at 25±1° C. Animals were given standard laboratory chow (NIN, Hyderabad, India) and water, ad libitum. SAM of 20-25 g body weight range and Guinea pigs of 500-700 g body weight range were used (Oliver, P., Plancke, M. O., Marzin, D., Clavey, V., Sauzieres, J and Fruchart, J. C. Effects of fenofibrate, gemfibrozil and nicotinic acid on plasma lipoprotein levels in normal and hyperlipidemic mice. Atherosclerosis. 1988. 70:107-114).
The test compounds were administered orally to Swiss albino mice at 0.3 to 30 mg/kg/day dose for 6 days. Control mice were treated with vehicle (0.25% Carboxymethylcellulose; dose 10 ml/kg). The test compounds were administered orally to Guinea pigs at 0.3 to 30 mg/kg/day dose for 6 days. Control animals were treated with vehicle (0.25% Carboxymethylcellulose; dose 5 ml/kg).
The blood samples were collected in fed state 1 hour after drug administration on 0 and 6 day of treatment. The blood was collected from the retro-orbital sinus through heparinised capillary in EDTA containing tubes. After centrifugation, plasma sample was separated for triglyceride and total cholesterol (Wieland, O. Methods of Enzymatic analysis. Bergermeyer, H. O., Ed., 1963. 211-214; Trinder, P. Ann. Clin. Biochem. 1969. 6:24-27). Measurement of plasma triglyceride, total cholesterol and HDL were done using commercial kits (Dr. Reddy's Diagnostic Division, Hyderabad, India).
as §1

CCOC(Cc1ccc(OCCN2COc3ccccc3C2=O)cc1)C(=O)O (racemic) [Example 3, (±) 2-Ethoxy-3-[4-[2-[4-oxo-3,4-dihydro-1,3-benzoxazin-3-yl]ethoxy]phenyl]propanoic Acid]
PPARα (hPPARα): 7
PPARγ (hPPARγ1): 11
HDL↑ (%) ([1]; 0.3 mg/kg orally for 3 days): 110%
Total Cholesterol (%)↓ ([1]; 0.3 mg/kg orally for 3 days): 64%
Triglyceride (%)↓ ([1]; 0.3 mg/kg orally for 3 days): 62%
LDL↓ (%) ([1]; 0.3 mg/kg orally for 3 days): 74%
VLDL↓ (%) ([1]; 0.3 mg/kg orally for 3 days): 50%

CCOC(Cc1ccc(OCCN2COc3ccccc3C2=O)cc1)C(=O)[O-].[Na+] (racemic) [Example 4, (±)-Sodium 2-ethoxy-3-[4-[2-[4-oxo-3,4-dihydro-1,3-benzoxazin-3-yl]ethoxy]phenyl]propanoate]
HDL↑ (%) ([1]; 3 mg/kg orally for 3 days): 256%
Total Cholesterol (%)↓ ([1]; 3 mg/kg orally for 3 days): 64%
Triglyceride (%)↓ ([1]; 3 mg/kg orally for 3 days): 61%
LDL↓ (%) ([1]; 3 mg/kg orally for 3 days): 76%
VLDL↓ (%) ([1]; 3 mg/kg orally for 3 days): 67%

CCOC(Cc1ccc(OCC2NC(=O)c3ccccc3O2)cc1)C(=O)O (racemic) [Example 14, (±)-2-Ethoxy-3-[4-[[4-oxo-3,4-dihydro 1,3-benzoxazin-2-yl]methoxy]phenyl]propanoic Acid]
Reduction in Blood Glucose Level (%) (C57BL/KsJ-db/db mice): 55%
Triglyceride Lowering (%) (C57BL/KsJ-db/db mice): 46%

CCOC(Cc1ccc(OCC2NC(=O)c3ccccc3N2)cc1)C(=O)O (racemic) [Example 16, (±)-2-Ethoxy-3-[4-[[4-oxo-1,2,3,4-tetrahydro-2-quinazolinyl]methoxy]phenyl]propanoic Acid]
Reduction in Blood Glucose Level (%) (C57BL/KsJ-db/db mice): 18%
Triglyceride Lowering (%) (C57BL/KsJ-db/db mice): 13%

CCOC(Cc1ccc(OCC2NC(=O)c3cc(Cl)ccc3N2)cc1)C(=O)O (racemic) [Example 18, (±)-2-Ethoxy-3-[4-[[6-chloro-4-oxo-1,2,3,4-tetrahydro-2-quinazolinyl]methoxy]phenyl]propanoic Acid]
Triglyceride (%)↓ [2]: 63%

CCOC(Cc1ccc(OCC2Nc3ccccc3C(=O)N2C)cc1)C(=O)OC (racemic) [Example 19, (±)-Methyl 2-ethoxy-3-[4-[[3-methyl-4-oxo-1,2,3,4-tetrahydro-2-quinazolinyl]methoxy]phenyl]propanoate]
Reduction in Blood Glucose Level (%) (C57BL/KsJ-db/db mice): 31%
Triglyceride Lowering (%) (C57BL/KsJ-db/db mice): 62%
Triglyceride (%)↓ [2]: 51%

CCOC(Cc1ccc(OCCN2COc3ccccc3C2=O)cc1)C(=O)NC(CO)c1ccccc1 (stereo not shown) [Example 7]
Triglyceride (%)↓ [2]: 61%

CCOC(Cc1ccc(OCCN2COc3ccccc3C2=O)cc1)C(=O)NC(CO)c1ccccc1 [Example 7a, [2R, N(1S)] 2-Ethoxy-3-[4-[2-[4-oxo-3,4-dihydro-1,3-benzoxazin-3-yl]ethoxy]phenyl]-N-(2-hydroxy-1-phenylethyl)propanamide]
melting point: 64 to 68 °C
